Where two headings read alike, the source gives them in different places.
What was measured:
[1] = system: hand-foot syndrome caused by capecitabine in SD rats; assay: Rat model of hand-foot syndrome caused by capecitabine, gel application; type: in vivo; settings: rats, capecitabine 4000 mg/kg once daily, 40 days
Method: A rat animal model was established. 6-week aged female SD rats were administered with capecitabine by daily gavage. The degree of hand-foot syndrome in paws is similar, and there was no difference between the left and right paws. Similar to the human body, rats developed hand-foot syndrome after oral administration of capecitabine. The causes of the two are the same, and the disorder is also very similar. Therefore, rats are very good animal models for simulating the hand-foot syndrome caused by capecitabine.
After SD rats were fed and adapted for one week (about 200 g), the rats were divided into groups, with 10 rats in each group. Then, the rats were subject to gavage administration. Capecitabine was dissolved in a 1:1 mixed solution of castor oil and ethanol and diluted for three times with PBS buffer. After gavage, the rats were fixed with a fixed cylinder, and a gel of thymidine derivative (or a compounded gel of thymidine derivative and uridine derivative) was applied to double hind paws (about 1 cm*3 cm) of the rats in group of administration (the types and concentrations are shown in Table 4), and a blank gel was applied to the group of blank (as a blank control). After approximately 4 hours of application, the rats were released after 4 hours, wiped with clean water to remove any residual drug at the application site, and allowed back to the cage. The thymidine derivative gel (or the compounded gel of thymidine derivative and uridine derivative) was administered with gavage every day. The gavage and application tests are repeated daily until the group of blank has developed obvious hand-foot syndrome.
Table 4 lists the combinations of animal experiments of capecitabine and the thymidine derivative gel (or the compounded gel of thymidine derivative and uridine derivative) and the corresponding experimental results (wherein, the data in the column of control rate=the occurrence rate of hand-foot syndrome in group of blank—the occurrence rate of hand-foot syndrome in group of administration). […]

[2] = system: pain in capecitabine hand-foot syndrome rats; assay: Pain of hand-foot syndrome, mechanical sensitivity in rats (von Frey); type: in vivo, rat; settings: capecitabine 4000 mg/kg hand-foot syndrome rats; thymidine derivative 3%
Method: According to the method of Examples 91-115, after administration of a thymidine derivative (at a concentration of 3%) and co-administration of a thymidine derivative (at a concentration of 1%) with a uridine derivative (at a concentration of 3%) to rat hand-foot syndrome models constructed from 4000 mg/kg of capecitabine for a period of time, pain analysis was performed on the rats, and the pain assessment model was mechanical sensitivity in rats (von Frey). The experimental steps were as follows: first, the rats were allowed to adapt in the room for 1 hour, then the rats were placed in an observation box with a metal mesh floor, and the mice were allowed to stay in the box for 20 minutes to adapt to the experimental platform. Next, a von Frey device was used to detect paw pain by stimulating the surface of the rat's palm with specially designed cilia to detect the mechanical sensitivity of the animal at strength of 0.4 g, 0.8 g, 1.5 g, 2.5 g, 4 g, 8 g, 10 g and 20 g (IITC Life Science, Woodland Hills, 2390 series). […] The rat movement response was considered to be a vague response, in which case the stimulation experiment was repeated.

HaCaT cells = assay: Relief of 5-FU proliferative toxicity to HaCaT cells (CCK-8 cell survival); type: cell-based; settings: for Cell Survival Rate (increased percentage of cell survival compared with the Group of 5-FU): 5-Fu 20 μM, HaCaT cells
How it was run: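 HaCaT keratinocytes (5000–10000/well) cultured 24 h, then exposed 48 h to 5-FU alone or with thymidine derivative, or thymidine plus uridine derivative mix, versus solvent-matched blanks. Survival by CCK-8; value is % increase in survival over 5-FU alone, t-test.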

[3] = system: 5-FU-induced diarrhea in Balb/c mice; assay: 5-FU-induced diarrhea mouse model (175 mg/kg single i.p.); type: in vivo; settings: 5-FU 175 mg/kg single i.p.; for Survival Rate / Average Diarrhea Grade: 6 days; for Average Diarrhea Grade: score 0-4
Method: 7-8-week-old male Balb/c mice were used to establish a 5-FU induced diarrhea model to test the effect of the thymidine derivative or the combination of thymidine derivative and uridine derivative on the relief of diarrhea.
Modeling dose of 5-Fu: 175 mg/kg; single administration, intraperitoneal injection (ip.);
Administration mode of the compound to test (thymidine derivative or combination of thymidine derivative and uridine derivative): single administration, by gavage, advance administration of the compound to test at various time points prior to intraperitoneal injection of 5-FU. The compound to test was administered 1 h prior to the administration of 5-FU, a certain amount of 5-FU was injected intraperitoneally 1 h later, and the compound to test was administered once again 7 h after the injection of 5-FU.
The mice were fed and adapted for one week, and then divided into groups, with 10 mice in each group for administration test.
The mice in the Group of blank was injected with 0.9% NaCl, and evaluated the effect by observing the change of diarrhea grade, food uptake, and weight change. The severity of diarrhea was scored in accordance with the following standards: 0: normal feces, 1: soft feces, 2: slightly wet, soft feces, 3: wet, unformed feces, with moderate coloration in perianal region, 4: watery feces with heavy coloration of hair in perianal region. The severity of diarrhea was evaluated by occurrence scores of various grades of diarrhea (Scores 0 to 4) and average score of diarrhea. […] The models were stable, and satisfied the experimental requirements.
5-FU was dissolved in a 0.9% NaCl solution, the mice in the model group and the treatment group were all i.p. injected at a dose of 175 mg/kg/d, […]. While modeling of injection administration of 5-FU, the thymidine derivative or the combination of thymidine derivative and uridine derivative was administered by gavage, and the compounds to test were dissolved in a PBS solution containing 5% DMSO+1% HPMC. Body weight was weighed daily to count the weight change (Δ % BW, the weight changes recorded in the table were the values on Day 6), and the food was weighed daily to calculate the food uptake. The mice were daily observed for their clinical status, e.g., activity, diarrhea, hair, fighting, etc. After 6 days, the experiments were completed and statistically analyzed for the results.

[4] = system: hand-foot syndrome caused by capecitabine in Balb/c mice; assay: Mouse model of hand-foot syndrome caused by capecitabine, gel application or oral administration; type: in vivo; settings: Mus musculus, 192 h, capecitabine 1000 mg/kg once daily, oral 200 mpk twice per day, 8 days
Method: A mouse animal model was established. 6-week aged male Balb/c mice were administered with capecitabine by daily gavage. After a few days, mice's paws developed hand-foot syndrome symptoms (similar to the results of the rat model, such as, in FIG. 13). Similar to the human body, mice developed hand-foot syndrome in the forepaws and hind paws after oral administration of capecitabine. The causes of the two are the same, and the disorder is also very similar. Therefore, mice are very good animal models for simulating the hand-foot syndrome caused by capecitabine.
After Balb/c mice were fed and adapted for one week (about 20 g), the mice were divided into groups, with 10 mice in each group. Then, the mice were subject to gavage administration. Capecitabine was dissolved in normal saline with pH=8, and the gavage dose was not greater than 0.3 mL at each time. After gavage, the blank gel was applied to the forepaws and the hind paws (about 4*0.5 cm*0.5 cm) in group of blank gel, and gels containing different drugs were applied to the forepaws and the hind paws (about 4*0.5 cm*0.5 cm) in group of administration. After application, the mice were fixed in Elizabethan collar for 4 hours. After 4 hours, the mice were released, wiped with clean water to remove any residual drug at the application site, and allowed back to the cage. The gavage and application tests are repeated daily until the group of blank has developed obvious hand-foot syndrome. […] Additionally, the thymidine derivative and the combination of thymidine derivative and uridine derivative were orally administered for observing the relief of the hand-foot syndrome. In examples 41-48, thymidine derivative and/or uridine derivative were/was applied, and in examples 49-52, thymidine derivative and/or uridine derivative were/was administered orally.
Table 5 lists the combinations of animal experiments of capecitabine and thymidine derivative (or a combination of thymidine derivative and uridine derivative) and the corresponding experimental results (wherein the data in the column of control rate=the occurrence rate of hand-foot syndrome in group of blank—the occurrence rate of hand-foot syndrome in group of administration).
The effect of thymidine derivative or a combination of thymidine derivative and uridine derivative on a mouse model with chemotherapeutic drug (capecitabine)-induced hand-foot syndrome was tested according to the method in Examples 41-52. Wherein, the drugs were administered transdermally for Examples 119-120 and orally for Examples 121-123.
The test thymidine derivative or the combination of thymidine derivative and uridine derivative, as well as the final concentration of the test compounds were shown in Table 9. Table 9 lists the combinations of animal experiments of capecitabine and the thymidine derivative gel (or a compounded gel of thymidine derivative and uridine derivative) and the corresponding experimental results (wherein the data in the column of control rate=the occurrence rate of hand-foot syndrome in Group of blank—the occurrence rate of hand-foot syndrome in Group of administration).

[5] = selected compound final concentration 0.8 μM
[6] = selected compound final concentration 1.6 μM
[7] = selected compound final concentration 3.13 μM
[8] = selected compound final concentration 6.25 μM
[9] = selected compound final concentration 12.5 μM
[10] = selected compound final concentration 25 μM
[11] = selected compound final concentration 50 μM

SMILES | Cell Survival Rate (increased percentage of cell survival compared with the Group of 5-FU) (HaCaT cells; [5]) | Cell Survival Rate (increased percentage of cell survival compared with the Group of 5-FU) (HaCaT cells; [6]) | Cell Survival Rate (increased percentage of cell survival compared with the Group of 5-FU) (HaCaT cells; [7]) | Cell Survival Rate (increased percentage of cell survival compared with the Group of 5-FU) (HaCaT cells; [8]) | Cell Survival Rate (increased percentage of cell survival compared with the Group of 5-FU) (HaCaT cells; [9]) | Cell Survival Rate (increased percentage of cell survival compared with the Group of 5-FU) (HaCaT cells; [10]) | Cell Survival Rate (increased percentage of cell survival compared with the Group of 5-FU) (HaCaT cells; [11]) | Δ % BW (on Day 6) ([3]; 15 mpk gavage) | Survival Rate ([3]; 15 mpk gavage) | Average Diarrhea Grade ([3]; 15 mpk gavage) | also measured
CCC1(CC(C)=O)OCCc2c1[nH]c1c(CC(=O)OC[C@H]3O[C@@H](n4cc(C)c(=O)[nH]c4=O)C[C@@H]3O)cccc21 (stereo partly drawn) [T26] |  |  |  |  |  |  |  |  |  |  | Control Rate Forepaws ([1]; gel 1 wt%): 22.22%; Control Rate Hindpaws ([1]; gel 1 wt%): 44.44%; Control Rate Forepaws ([1]; gel 3 wt%): 57.14%; Control Rate Hindpaws ([1]; gel 3 wt%): 71.43%; pain in rats (von Frey mechanical sensitivity) [2]: could significantly improve pain in rats
Cc1cn([C@H]2C[C@H](O)[C@@H](COC(=O)C(C)c3cccc(C(=O)c4ccccc4)c3)O2)c(=O)[nH]c1=O (stereo partly drawn) [T33] | 36%-42% | 37%-44% | 39%-49% | 36%-42% | 55%-63% | 64%-71% | 66%-73% |  |  |  | Cell Survival Rate (increased percentage of cell survival compared with the Group of 5-FU) (HaCaT cells; selected compound final concentration 100 μM): 55%-63%; Δ % BW (on Day 6) ([3]; 50 mpk gavage): 4.18% ± 0.56%; Survival Rate ([3]; 50 mpk gavage): 100%; Average Diarrhea Grade ([3]; 50 mpk gavage): 1
CCC(CC)COC(=O)[C@H](C)N[P@@](=O)(Oc1ccccc1)O[C@H]1C[C@H](n2cc(C)c(=O)[nH]c2=O)O[C@@H]1CO [T49] | 35%-42% | 56%-63% | 72%-79% | 68%-74% | 36%-44% |  |  | −1.97% ± 0.67% | 80% | 0.75 | 
CCC(CC)COC(=O)[C@H](C)N[P@](=O)(OC[C@H]1O[C@@H](n2cc(C)c(=O)[nH]c2=O)C[C@@H]1O)Oc1ccccc1 [T48] | 26%-34% | 38%-46% | 41%-48% | 66%-73% | 68%-76% | 77%-85% | 69%-76% | −1.97% ± 0.67% | 100% | 1.3 | 
CCCC(=O)OC[C@H]1O[C@@H](n2cc(C)c(=O)[nH]c2=O)C[C@@H]1OC(=O)CCC [T6, ((2R,3S,5R)-3-(butyryloxy)-5-(5-methyl-2,4-dioxo-3,4-dihydropyrimidin-1(2H)-yl)tetrahydrofuran-2-yl)methyl Butyrate] |  |  |  |  |  |  |  |  |  |  | activation at 1 µM (HaCaT cells; Homo sapiens, HaCaT, increase vs Group of 5-FU, 5-FU 20 μM, compound 1 μM, 48 h, read-out: Cell Survival Rate): 27 to 34%; activation at 5 µM (HaCaT cells; Homo sapiens, HaCaT, increase vs Group of 5-FU, 5-FU 20 μM, compound 5 μM, 48 h, read-out: Cell Survival Rate): 40 to 48%; activation at 10 µM (HaCaT cells; Homo sapiens, HaCaT, increase vs Group of 5-FU, 5-FU 20 μM, compound 10 μM, 48 h, read-out: Cell Survival Rate): 55 to 65%; activation at 50 µM (HaCaT cells; Homo sapiens, HaCaT, increase vs Group of 5-FU, 5-FU 20 μM, compound 50 μM, 48 h, read-out: Cell Survival Rate): 65 to 75%; activation at 100 µM (HaCaT cells; Homo sapiens, HaCaT, increase vs Group of 5-FU, 5-FU 20 μM, compound 100 μM, 48 h, read-out: Cell Survival Rate): 68 to 75%; activation at 200 µM (HaCaT cells; Homo sapiens, HaCaT, increase vs Group of 5-FU, 5-FU 20 μM, compound 200 μM, 48 h, read-out: Cell Survival Rate): 85 to 95%; inhibition in vivo at 200 mg/kg ([4]; read-out: Control Rate Forepaws): 65%; inhibition in vivo at 200 mg/kg ([4]; read-out: Control Rate Hindpaws): 77.5%
